How the values were obtained:
LXRβ = LXRβ (Homo sapiens, UniProt P55055); experiment: Receptor transactivation assay, LXRβ (CV-1 cells); assay type: cell-based; conditions: at physiological concentrations
Description: For PPARγ: CV-1 cells were transfected with 3x(rAOX/DR1)-tk-Luc reporter gene and an expression vector for PPARγ; for FXR: CV-1 cells were transfected with 3x(IBABP/IR1)-tk-Luc reporter gene and vectors for FXR and RXRα; for LXR: CV-1 cells were transfected with 3x(PLTP/LXRE)-tk-Luc reporter gene with vectors for LXRα or LXRβ. […] Luciferase data were normalized to co-transfected β-gal activity. Luciferase activity is expressed as percent of maximal activity obtained using specific agonists 9-cis-retinoic acid (RXR), retinoic acid (RAR), rosiglitazone (PPARγ), GW4064 (FXR), T0901317 (LXR).

Nurr1 = molecular target: T1, Nurr1 (Homo sapiens, UniProt P43354); experiment: Nurr1 transactivation assay in COS7 cells without RXRα; assay type: cell-based; conditions: Nurr1 in the absence of RXRα
T1 construct: full length Nurr1 with or without full-length RXRα plasmid; expressed in transfected cells; host or cells: COS7
Description: For RXR: CV-1 cells were transfected with rCRBPII/RXRE-tk-Luc reporter gene and an expression vector for RXRα, β, or γ. For RAR: CV-1 cells were transfected with ERE-tk-Luc reporter gene and an expression vector for the appropriate ER-RARα, β, or γ. ER-RARs are fusion proteins, composed of the estrogen receptor (ER) DNA binding domain fused to the ligand binding domain of RARs. This system eliminates interference by the low level of endogenous RAR activity in CV1 cells as the readout comes only from the transfected ER-RAR. For PPARγ: CV-1 cells were transfected with 3x(rAOX/DR1)-tk-Luc reporter gene and an expression vector for PPARγ; for FXR: CV-1 cells were transfected with 3x(IBABP/IR1)-tk-Luc reporter gene and vectors for FXR and RXRα; for LXR: CV-1 cells were transfected with 3x(PLTP/LXRE)-tk-Luc reporter gene with vectors for LXRα or LXRβ. For Nurr1: COS7 cells were transfected with 3xNBRE-tk-luc reporter gene and full length Nurr1 with or without full-length RXRα plasmid. […] Luciferase data were normalized to co-transfected β-gal activity. Luciferase activity is expressed as percent of maximal activity obtained using specific agonists 9-cis-retinoic acid (RXR), retinoic acid (RAR), rosiglitazone (PPARγ), GW4064 (FXR), T0901317 (LXR).

LXRβ, sequence (P55055 whole entry): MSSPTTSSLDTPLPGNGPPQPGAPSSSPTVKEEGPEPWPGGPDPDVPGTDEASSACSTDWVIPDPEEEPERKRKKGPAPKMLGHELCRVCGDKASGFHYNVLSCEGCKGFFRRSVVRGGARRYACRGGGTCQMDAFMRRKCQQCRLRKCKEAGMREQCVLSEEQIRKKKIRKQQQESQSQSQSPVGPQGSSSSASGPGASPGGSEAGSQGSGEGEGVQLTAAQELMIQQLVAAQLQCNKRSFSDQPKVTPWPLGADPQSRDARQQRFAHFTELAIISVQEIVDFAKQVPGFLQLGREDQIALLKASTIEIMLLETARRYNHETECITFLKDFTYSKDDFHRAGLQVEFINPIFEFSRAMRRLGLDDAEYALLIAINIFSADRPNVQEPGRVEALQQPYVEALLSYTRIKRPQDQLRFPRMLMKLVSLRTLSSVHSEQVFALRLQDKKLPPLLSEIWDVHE
LXRβ, sequence (P19793 whole entry, further chain): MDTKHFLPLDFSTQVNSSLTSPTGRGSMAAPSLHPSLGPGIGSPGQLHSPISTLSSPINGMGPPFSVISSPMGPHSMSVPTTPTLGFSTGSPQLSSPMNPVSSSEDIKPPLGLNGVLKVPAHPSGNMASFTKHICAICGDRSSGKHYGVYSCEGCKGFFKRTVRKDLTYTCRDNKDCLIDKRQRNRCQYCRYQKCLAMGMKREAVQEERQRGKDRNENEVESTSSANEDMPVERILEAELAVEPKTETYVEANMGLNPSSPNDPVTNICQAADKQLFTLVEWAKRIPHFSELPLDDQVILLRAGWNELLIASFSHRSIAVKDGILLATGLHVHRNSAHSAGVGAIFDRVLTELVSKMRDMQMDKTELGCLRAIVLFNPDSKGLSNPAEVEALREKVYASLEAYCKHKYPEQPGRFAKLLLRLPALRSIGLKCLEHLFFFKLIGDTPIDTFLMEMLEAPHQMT
T1 sequence (P43354 whole entry, species assumed): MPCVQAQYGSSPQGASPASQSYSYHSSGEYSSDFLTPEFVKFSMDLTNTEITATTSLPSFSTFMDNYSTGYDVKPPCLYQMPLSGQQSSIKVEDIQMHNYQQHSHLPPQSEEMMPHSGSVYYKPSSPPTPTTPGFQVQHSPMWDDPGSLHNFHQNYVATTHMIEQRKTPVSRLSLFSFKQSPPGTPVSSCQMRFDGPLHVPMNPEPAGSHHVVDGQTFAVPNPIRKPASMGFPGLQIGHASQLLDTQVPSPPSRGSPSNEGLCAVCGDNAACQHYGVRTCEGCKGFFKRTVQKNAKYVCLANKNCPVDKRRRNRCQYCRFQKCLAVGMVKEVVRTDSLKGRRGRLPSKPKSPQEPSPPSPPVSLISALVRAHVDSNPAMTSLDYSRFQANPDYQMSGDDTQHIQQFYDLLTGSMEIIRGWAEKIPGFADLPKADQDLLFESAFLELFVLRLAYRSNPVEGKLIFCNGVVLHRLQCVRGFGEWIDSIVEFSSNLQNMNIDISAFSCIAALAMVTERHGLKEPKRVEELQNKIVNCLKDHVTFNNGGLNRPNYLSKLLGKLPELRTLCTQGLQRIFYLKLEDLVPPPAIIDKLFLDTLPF

activation of RXR heterodimer of LXRβ (LXRβ): does not activate
reporter gene activation (Nurr1): base level of reporter gene activation
Compound: CC(/C=C/[C@@H]1C[C@]1(C)c1ccc2c(c1)C(C)(C)CCC2(C)C)=C\C(=O)O [IRX4204]

— paper PMC4884932, “Selective brain penetrable Nurr1 transactivator for treating Parkinson's disease” (Oncotarget, 2016)
